Measurements taken from publication PMC11547813, “The Antifungal Effects of Berberine and Its Proposed Mechanism of Action Through CYP51 Inhibition, as Predicted by Molecular Docking and Binding Analysis” (Molecules, 2024).

Target: T1, CYP51Ca (recombinant protein CYP51 of C. albicans) (Candida albicans, UniProt P10613)
T1 construct: gene ERG11; commercial recombinant protein from Sangon Biotech (Shanghai)
Assay: biolayer interferometry (BLI), protein immobilised on APS sensor
Assay type: binding
Excerpt: biolayer interferometry (BLI), protein immobilised on APS sensor on CYP51Ca (recombinant protein CYP51 of C. albicans) | berberine binds to CYP51Ca in a dose-dependent manner, with a dissociation constant (KD)

T1 sequence (P10613 whole entry): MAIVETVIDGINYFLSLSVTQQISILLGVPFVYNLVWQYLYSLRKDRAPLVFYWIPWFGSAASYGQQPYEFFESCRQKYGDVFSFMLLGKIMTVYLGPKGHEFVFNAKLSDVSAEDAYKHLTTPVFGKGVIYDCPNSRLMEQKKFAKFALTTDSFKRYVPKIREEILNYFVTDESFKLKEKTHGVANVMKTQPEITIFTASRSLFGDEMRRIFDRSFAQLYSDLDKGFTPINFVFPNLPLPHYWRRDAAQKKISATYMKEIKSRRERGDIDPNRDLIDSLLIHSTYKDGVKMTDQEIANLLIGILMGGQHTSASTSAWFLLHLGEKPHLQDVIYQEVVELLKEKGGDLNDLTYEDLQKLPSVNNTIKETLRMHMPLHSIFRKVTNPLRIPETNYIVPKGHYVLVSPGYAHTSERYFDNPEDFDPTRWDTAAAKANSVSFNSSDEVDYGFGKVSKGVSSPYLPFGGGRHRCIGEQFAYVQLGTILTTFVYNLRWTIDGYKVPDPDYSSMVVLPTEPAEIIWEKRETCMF

## COc1ccc2cc3[n+](cc2c1OC)CCc1cc2c(cc1-3)OCO2 [berberine]
  Kd: < 1 pM
